Reference: patent US12006283B2, “HIF-1α inhibitor, preparation method therefor, and pharmaceutical composition for preventing or treating angiogenesis-associated eye disease, containing same as active ingredient” (SEOUL NATIONAL UNIVERSITY R&DB FOUNDATION, priority 2018, dated 2024)

Columns and labels:
[1] = biological target: T1, HIF-1α (hypoxia-inducible factor 1α) (Homo sapiens, UniProt Q16665); assay: Evaluation of HIF-1α inhibitory activity (in vitro); format: cell-based; settings: for IC50: HIF-1α inhibitory activity
Method: <Experimental Example 1> Evaluation of HIF-La Inhibitory Activity (In Vitro) The following experiment was performed in order to evaluate inhibitory activity against HIF-1α (hypoxia-inducible factor 1α) of the compound of Example according to an embodiment of the present invention.

[2] = biological target: T1, HIF-1α (hypoxia-inducible factor 1α); assay: Evaluation of HIF-1α regulatory activity (in vitro); format: cell-based; settings: FIG. 2, compared with Comparative Example 1
Method: <Experimental Example 3> Evaluation of HIF-1α Regulatory Activity (In Vitro)
The following experiment was performed in order to evaluate regulatory activity of HIF-1α (hypoxia-inducible factor 1α) of the compound of Example according to an embodiment of the present invention.
FIG. 2 is a graph showing the results of analysis of the regulatory activity of HIF-1α (hypoxia-inducible factor 1α) of the compound of Example according to an embodiment of the present invention, wherein compound 2 is a compound of Comparative Example 1, and compound 34f is a compound of Example 10.

[3] = system: retinal neovascularization by hypoxia; assay: Evaluation of inhibitory activity against retinal neovascularization by hypoxia; format: in vivo; settings: FIG. 3; compared with Comparative Example 1
Method: <Experimental Example 4> Evaluation of Inhibitory Activity Against Retinal Neovascularization by Hypoxia
The following experiment was performed in order to evaluate inhibitory activity against retinal neovascularization by hypoxia of the compound of Example according to an embodiment of the present invention.
FIG. 3 is a graph showing the results of analysis of the inhibitory activity against retinal neovascularization by hypoxia of the compound of Example according to an embodiment of the present invention, wherein compound 2 is a compound of Comparative Example 1, and compound 34f is a compound of Example 10.

[4] = system: angiogenesis; assay: Evaluation of inhibitory activity against angiogenesis (in vitro); format: cell-based; settings: FIG. 1, compared with Comparative Example 1
Method: <Experimental Example 2> Evaluation of Inhibitory Activity Against Angiogenesis (In Vitro)
The following experiment was performed in order to evaluate inhibitory activity against angiogenesis of the compound of Example according to an embodiment of the present invention.
FIG. 1 is a graph showing the results of analysis of inhibitory activity against angiogenesis of the compound of Example according to an embodiment of the present invention, wherein compound 2 is a compound of Comparative Example 1, and compound 34f is a compound of Example 10.

T1 sequence (Q16665 whole entry, looked up): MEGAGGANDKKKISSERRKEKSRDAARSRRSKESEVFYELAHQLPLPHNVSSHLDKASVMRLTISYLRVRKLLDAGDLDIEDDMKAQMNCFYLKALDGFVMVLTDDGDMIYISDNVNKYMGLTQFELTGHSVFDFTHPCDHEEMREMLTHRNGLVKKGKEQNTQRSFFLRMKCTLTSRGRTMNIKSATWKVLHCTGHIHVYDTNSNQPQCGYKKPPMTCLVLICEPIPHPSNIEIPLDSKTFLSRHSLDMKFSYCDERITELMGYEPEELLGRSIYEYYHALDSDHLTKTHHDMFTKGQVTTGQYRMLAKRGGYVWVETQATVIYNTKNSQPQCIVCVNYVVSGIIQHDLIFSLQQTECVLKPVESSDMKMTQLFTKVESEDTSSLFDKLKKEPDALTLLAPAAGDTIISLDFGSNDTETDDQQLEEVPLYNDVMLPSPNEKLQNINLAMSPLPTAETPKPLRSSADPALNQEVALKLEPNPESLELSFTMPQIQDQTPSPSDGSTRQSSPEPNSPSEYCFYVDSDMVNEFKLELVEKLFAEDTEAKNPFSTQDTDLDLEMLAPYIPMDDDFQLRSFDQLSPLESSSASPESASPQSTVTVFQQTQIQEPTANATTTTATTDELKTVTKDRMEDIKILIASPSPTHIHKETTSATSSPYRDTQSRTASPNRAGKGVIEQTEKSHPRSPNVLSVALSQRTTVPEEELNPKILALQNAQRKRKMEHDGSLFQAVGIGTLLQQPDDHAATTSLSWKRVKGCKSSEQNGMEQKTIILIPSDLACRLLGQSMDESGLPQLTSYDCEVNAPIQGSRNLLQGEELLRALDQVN

Molecule | IC50 [1] [µM] | other results
COc1ccc(C(C)C(=O)c2ccc(N3CCCC3)cc2OC)cc1OC (stereo not shown) [Example 6, 2-(3,4-dimethoxyphenyl)-1-(2-methoxy-4-(pyrrolidin-1-yl)phenyl)propan-1-one] | 2.82 | 
COc1ccc(C(C)C(=O)c2ccc(N(C)C)cc2OC)cc1OC (stereo not shown) [Example 5, 2-(3,4-dimethoxyphenyl)-1-(4-(dimethylamino)-2-methoxyphenyl)propan-1-one] | > 15 | 
COc1ccc(C(C)C(=O)c2ccc(NCc3ccccc3)cc2OC)cc1OC (stereo not shown) [Example 9, 1-(4-(benzylamino)-2-methoxyphenyl)-2-(3,4-dimethoxyphenyl)propan-1-one] | 1.43 | 
COc1ccc(C(C)C(=O)c2ccc(N3CCCCC3)cc2OC)cc1OC (stereo not shown) [Example 7, 2-(3,4-dimethoxyphenyl)-1-(2-methoxy-4-(piperidin-1-yl)phenyl)propan-1-one] | 1.85 | 
CCOc1ccc(C(=O)C(C)c2ccc(OC)c(OC)c2)c(OC)c1 (stereo not shown) [Example 3, 2-(3,4-dimethoxyphenyl)-1-(4-ethoxy-2-methoxyphenyl)propan-1-one] | 11.7 | 
COc1ccc(C(C)C(=O)c2ccc(OC3CCCCC3)cc2OC)cc1OC (stereo not shown) [Example 4, 1-(4-(cyclohexyloxy)-2-methoxyphenyl)-2-(3,4-dimethoxyphenyl)propan-1-one] | 2.59 | 
COc1ccc(C(=O)C(C)c2ccc(OC)c(OC)c2)c(OC)c1 (stereo not shown) [Example 2, 1-(2,4-dimethoxyphenyl)-2-(3,4-dimethoxyphenyl)propan-1-one] | > 15 | 
COc1cc(N2CCCCC2)ccc1C(=O)C(C)c1ccccc1F (stereo not shown) [Example 15, 2-(2-fluorophenyl)-1-(2-methoxy-4-(piperidin-1-yl)phenyl)propan-1-one] | 6.52 | 
CC(C(=O)c1ccc(NCc2ccccc2)cc1)c1ccccc1F (stereo not shown) [Example 14, 1-(4-(benzylamino)phenyl)-2-(2-fluorophenyl)propan-1-one] | 7.35 | 
COc1ccc(C(C)C(=O)c2ccc(N3CCOCC3)cc2OC)cc1OC (stereo not shown) [Example 8, 2-(3,4-dimethoxyphenyl)-1-(2-methoxy-4-morpholinophenyl)propan-1-one] | 8.74 | 
COc1cc(NCc2ccc(C#N)cc2)ccc1C(=O)C(C)c1ccccc1F (stereo not shown) [Example 16, 4-(((4-(2-(2-fluorophenyl)propanoyl)-3-methoxyphenyl)amino)methyl)benzonitrile] | 5.28 | 
COc1ccc(C(C)C(=O)c2ccc(N3CCOCC3)cc2)cc1OC (stereo not shown) [Example 12, 2-(3,4-dimethoxyphenyl)-1-(4-morpholinophenyl)propan-1-one] | 6.85 | 
COc1ccc(C(C)C(=O)c2ccc(NCc3ccc(C#N)cc3)cc2OC)cc1OC (stereo not shown) [Example 10] | 0.6 | HIF-1α regulatory activity [2]: better HIF-1α regulatory activity than that of the compound of Comparative Example 1; inhibitory activity against retinal neovascularization by hypoxia [3]: better inhibitory activity against retinal neovascularization by hypoxia than that of the compound of Comparative Example 1; inhibitory activity against HIF-1α (in words) ([1]; comment on Table 2): best inhibitory activity against HIF-1a; inhibitory activity against angiogenesis [4]: better inhibitory activity against angiogenesis than that of the compound of Comparative Example 1
2-(3,4-dimethoxyphenyl)-1-(4-(pyrrolidin-1-yl)phenyl)propan-1-one [Example 11] | 2.61 | 
CC(C(=O)c1ccc(N2CCCCC2)cc1)c1ccccc1F (stereo not shown) [Example 13, 2-(2-fluorophenyl)-1-(4-(piperidin-1-yl)phenyl)propan-1-one] | 2.06 | 
